Assay results taken from paper PMC2970562, “High-Affinity Inhibitors of Human NAD^+-Dependent 15-Hydroxyprostaglandin Dehydrogenase: Mechanisms of Inhibition and Structure-Activity Relationships” (PLoS ONE, 2010).
Like-named read-outs stand apart in the source and are kept apart here.

Experiments:
human 15-PGDH [1] = molecular target: T1, human 15-PGDH (Homo sapiens, UniProt P15428); experiment: qHTS and 24-point re-test: fluorescence assay of NAD+ reduction to NADH on PGE2 oxidation (PubChem AID 894); assay type: biochemical
T1 construct: comprising residues 3–256 of the human HPGD gene (GenBank identifier: 1203982); His6 (GHHHHHH, behind the TEV site) (C, cleaved yes); made in house; host or cells: E. coli BL21(DE3)-R3
T1 sequence (P15428 3-256): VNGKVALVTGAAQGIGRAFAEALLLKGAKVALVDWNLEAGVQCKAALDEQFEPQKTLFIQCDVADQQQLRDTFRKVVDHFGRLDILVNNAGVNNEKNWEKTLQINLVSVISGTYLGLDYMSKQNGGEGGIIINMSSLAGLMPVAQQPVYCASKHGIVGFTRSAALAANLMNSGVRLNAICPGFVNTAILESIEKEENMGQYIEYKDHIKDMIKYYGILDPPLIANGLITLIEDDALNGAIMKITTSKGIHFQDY
Experimental: The assay was miniaturized to a 4-µL volume in 1536-well format: enzyme (3 µL) was dispensed first, followed by a pintool transfer of library compounds dissolved in DMSO. After equilibration, a substrate dispense (1 µL) initiated the enzymatic reaction (see Materials and Methods, for detailed protocol description). […] Hits associated with low-efficacy (<40% maximum inhibition), incomplete curves, as well as those displaying only a single-point inhibition at the top concentration tested were eliminated from further consideration. Similarly, the collection of real-time kinetic data allowed the autofluorescence of each compound to be evaluated by comparing the initial fluorescence read at top concentration with the mean value of uninhibited assay controls: compounds whose top-concentration initial well fluorescence exceeded six standard deviations over the mean were flagged as potential autofluorescent artifacts, [28] (see example in supplementary information Figure S1E). The complete screening and followup results are available in PubChem (PubChem Assay ID 894).
The enzymatic reaction was performed in 50 mM Tris-HCl pH 8.0, containing 0.01% Tween 20. […] The high-throughput screen was performed on a fully integrated robotic system (Kalypsys Inc, San Diego, CA) as described elsewhere. Library compounds, arrayed as seven-point inter-plate concentration series, were screened from the lowest (3.5 nM) to the highest (57.5 µM) concentration, with plates containing DMSO only, serving to note any systematic drifts in the signal, interspersed evenly throughout the screen (approximately every 50 plates). Briefly, 3 µL of reagents were dispensed into 1536-well Greiner black solid-bottom assay plates using integrated nanoliter solenoid-technology dispensers. Compounds and controls (23 nL) were transferred via Kalypsys pintool equipped with 1,536-pin array (10-nL slotted pins; V&P Scientific, Palo Alto, CA). After a 15-minute incubation (to allow for interaction between compound and enzyme), a 1-µL substrate addition step initiated the reaction. Kinetic data were collected on a ViewLux High-throughput CCD imager (Perkin-Elmer) equipped with standard UV fluorescence optics (exc. 340 nm, em. 450 nm).
Starting fluorescence intensity and the change in fluorescence over the two-minute initial rate period were recorded for every well. Screening data were normalized against no-enzyme (64 wells, columns 3 and 4) and no-compound (32 wells located in column 1) controls, and concentration-response relationships were derived as described previously. A four-parameter Hill equation [47] was fitted to the concentration-response data using publicly available algorithms (http://www.ncgc.nih.gov/pub/openhts/curvefit/).

human 15-PGDH [2] = molecular target: T1, human 15-PGDH; experiment: Differential scanning fluorimetry (DSF), thermal stabilization; assay type: binding; details: 1 µM protein, compound 50 or 250 µM, N/A = no unfolding transition observed in DSF; for ∆Tm [°C] NAD+: with 200 µM NAD+; for ∆Tm [°C] NADH: with 200 µM NADH; for ∆Tm [°C] apo: without cofactor
Experimental: A correlation between the ΔTm and the inhibitory potency has been shown in a number of protein-ligand systems, particularly for kinases [32]–[34].
Studies to assess the thermal stability of human 15-PGDH in presence of compounds were performed as described previously, with variations. Briefly, the protein was diluted to a final assay concentration of 1 µM in 100 mM Tris buffer pH 8.0, containing 0.01% Tween-20 and 1∶1000 SYPRO orange dye (Invitrogen). […] Compounds were added at a ratio of 1∶5 from appropriate stock solutions in 10% (v/v) DMSO to comprise either 50 or 250 µM final concentrations. Heat denaturation curves were recorded using a RT-PCR instrument (Mx3005p, Agilent) applying a temperature gradient of 2°C/min. […] 2.5 (ftp://ftp.sgc.ox.ac.uk/pub/biophysics) and PRISM 5.0 (GraphPad Software, Inc.).

[3] = potency in 24-point titrations on re-test, 20 nM 15-PGDH, 1 mM NAD+, 30 µM PGE2, pH 8.0, read-out: qHTS IC50

SMILES | IC50 (human 15-PGDH [1]; [3]) [nM] | ∆Tm [°C] NAD+ (human 15-PGDH [2]) [°C] | ∆Tm [°C] NADH (human 15-PGDH [2]) [°C] | ∆Tm [°C] apo (human 15-PGDH [2]) [°C] | IC50 (human 15-PGDH [1]; read-out: qHTS IC50) [nM] | IC50 (human 15-PGDH [1]; control inhibitor, 16-point dilution series in duplicate on every qHTS plate, read-out: average IC50) [nM]
O=C(c1ccc(N2C(=O)C3CC=C(Cl)CC3C2=O)cc1)N1CCCCC1 (centres unmarked) [Compound 1] | 251 | 3.0 | 6.1 | -0.1 |  | 
C=C(C(=O)OC)C1CCC2(C)C(OC(=O)C(Cc3ccc(O)cc3)OC(=O)C(O)C(C)C)CCC(O)(COC3OC(CO)C(O)C(O)C3O)C2C1O (centres unmarked) [Compound 2] | 794 | 1.7 | 6.0 | -0.6 |  | 
CCCCCCOCCCCc1ccc(-c2ccc(OCCCCCCC3CC3)nc2)nn1 [Compound 3] | 562 | 2.1 | 6.7 | -0.6 |  | 
COc1ccccc1C(=O)Nc1ccc(C(=O)N2CCCC2)cc1 [Compound 4] | 1000 | 2.2 | 4.7 | 0.3 |  | 
CC1CCN(C(=O)c2ccc(CSc3ccc(Cl)cc3)cc2)CC1 [Compound 5] |  | 2.3 | 7.1 | -0.8 | 631 | 
O=C(c1ccc(COc2ccccc2Br)cc1)N1CCCCC1 [Compound 7] |  | 7.1 | 10.6 | -0.1 | 89 | 
C=CCN1C(=O)[C@@H](CC(=O)Nc2cc(C)ccc2C)SC1=Nc1cc(C)cc(C)c1 [Compound 8] | 200 | 3.0 | 6.6 | -1.4 |  | 
O=C(O)CC1(CO)CC1 [Compound 9] | 224 | 2.2 | 7.8 | -1.1 |  | 
CC1CCCN(C(=O)c2ccc(COc3ccccc3Br)cc2)C1 (centres unmarked) [Compound 11] | 126 | 3.8 | 10.6 | -0.4 |  | 
CN(Cc1cccc(Cl)c1)c1ccc(S(C)(=O)=O)cc1S(C)(=O)=O [Compound 12] | 355 | 2.2 | 7.1 | -1.6 |  | 
C=CCOC12Oc3ccc(Oc4ccc(OC)c(C=O)c4)cc3C3C(CCCCO)C(CCCCO)C=C(C(=NOCC)CC1N(CCC)C(=O)OCCOCc1ccccc1)C32 (centres unmarked) [Compound 14] | 251 | 3.2 | 7.8 | -1.0 |  | 
Cc1cc(NC(=O)COC(=O)c2cccc(S(=O)(=O)NC(C)(C)C)c2)no1 [Compound 16] | 224 | 3.5 | 7.8 | -1.8 |  | 
C[C@H]1CCCCN1C(=O)CSc1nnc(-c2ccccc2F)o1 [Compound 17] | 708 | 3.3 | 4.4 | 0.1 |  | 
Cc1ccccc1C(=O)N1CCc2ccccc2C1 [Compound 18] | 2510 | 1.5 | 2.2 | -1.1 |  | 
COC(=O)c1cc(CNC(=O)C2(c3ccc(Cl)cc3)CC2)ccc1OC [Compound 20] | 224 | 3.1 | 7.9 | 0.3 |  | 
CCCC(NC(=O)Cn1c(-c2cccs2)n[nH]c1=S)c1ccccc1 (centres unmarked) [Compound 23] | 2240 | 1.2 | 1.6 | -0.4 |  | 
CN(C)C(=O)C(NCCc1c[nH]c2ccccc12)c1ccccc1 (centres unmarked) [Compound 29] | 501 | 2.7 | 8.4 | -0.1 |  | 
COc1ccccc1NS(=O)(=O)c1cc(C(=O)N2CCC2)ccc1C [Compound 30] | 562 | 2.4 | 6.4 | 0.2 |  | 
CCCCCCCCNCCOCCOCCOCCOCCNCCCCCCCC [Compound 31] | 3980 | 1.1 | 4.8 | -0.1 |  | 
CCCC(C(=O)O)C(C)(C)O (centres unmarked) [Compound 32] | 282 | 3.9 | 9.6 | -1.4 |  | 
CCCC(CCCCCCC(=O)c1cn(CCCC(=O)OCC)c2ccccc12)c1ccc(CC(C)C)cc1 (centres unmarked) [Compound 34] | 794 | 2.0 | 6.4 | 0.1 |  | 

SMILES | IC50 (human 15-PGDH [1]; [3]) [nM] | ∆Tm [°C] NAD+ (human 15-PGDH [2]) [°C] | ∆Tm [°C] NADH (human 15-PGDH [2]) [°C] | ∆Tm [°C] apo (human 15-PGDH [2]) [°C] | IC50 (human 15-PGDH [1]; read-out: qHTS IC50) [nM] | IC50 (human 15-PGDH [1]; control inhibitor, 16-point dilution series in duplicate on every qHTS plate, read-out: average IC50) [nM]
COc1ccc(C2C(C(=O)O)c3ccccc3C(=O)N2Cc2ccccc2)cc1 (centres unmarked) [Compound 35] | 7080 | 1.2 | 2.2 | -0.1 |  | 
CC1=NOC(=O)C1=Cc1ccc(-c2cc(Cl)ccc2Cl)o1 [Compound 62] | 447 |  |  |  |  | 
O=C(COc1ccc(F)cc1Cl)Nc1cccc(C(=O)NC2CC2)c1 [Compound 63] | 447 |  |  |  |  | 
CC1=NOC(=O)C1=Cc1ccc(-c2ccc(Cl)cc2)o1 [Compound 64] | 1120 |  |  |  |  | 
CCCCc1ccc(NC(=O)C2=CN3CCS(=O)(=O)N=C3C=C2)cc1 [Compound 67] | 398 |  |  |  |  | 
CCCCCCCCCOC(=O)c1ccc2c(c1)N(CCCS(=O)(=O)O)/C(=C\C=C\c1n(CCCS(=O)(=O)O)c3cc(C(=O)OCCCCCCCCC)ccc3[n+]1CC)N2CC [Compound 68] | 447 |  |  |  |  | 
COc1ccc(OC)c(NC(=O)Cc2cc(Cl)ccc2OC)c1 [Compound 69] | 562 |  |  |  |  | 
CCc1nc(N2CCN(C(=O)c3ccco3)CC2)c(C#N)c2c1COC(C)(C)C2 [Compound 70] | 3160 |  |  |  |  | 
FC(F)(F)c1ccc(-c2nnco2)cc1 [Compound 73] | 126 |  |  |  |  | 
CCNC(=O)c1ccc(CSc2ccc(Cl)cc2)cc1 [Compound 74] | 3980 |  |  |  |  | 
N#Cc1c(NC(=O)COC(=O)C23CC4CC(CC(C4)C2)C3)sc2c1CCCCC2 [Compound 75] | 2510 |  |  |  |  | 
COc1cccc(NC(=O)N2CCC3(CC2)C(=O)N(CC(=O)NCc2ccc4c(c2)OCO4)CN3c2ccccc2)c1 [Compound 76] | 112 |  |  |  |  | 
Cc1ccc(NC(=O)COc2cccc(C=C(C#N)C(=O)Nc3cccc(Cl)c3C)c2)cc1C [Compound 77] | 14100 |  |  |  |  | 
COc1ccc(/C=C2\SC(=O)N(CCNC(=O)c3ccc(Br)o3)C2=O)cc1OC [Compound 81] | 1580 |  |  |  |  | 
CN1CCCc2cccc(C[S+]([O-])c3ncc[nH]3)c21 (centres unmarked) [Compound 82] | 501 |  |  |  |  | 
CC(C)CC=NCCCCCCN=CCC(C)C [Compound 83] | 1260 |  |  |  |  | 
COc1ccc(C(=O)c2ccccc2O)c(O)c1 [Compound 85] | 1000 |  |  |  |  | 
O=c1oc2c(O)c(O)cc3c(=O)oc4c(O)c(O)cc1c4c23 [Compound 86] | 45 |  |  |  |  | 
CC1(C)Oc2c(N=C=O)ccc(Cl)c2C1=O [Compound 87] | 3160 |  |  |  |  | 
O=C1Nc2ccc(I)cc2/C1=C/c1cc(Br)c(O)c(Br)c1 [GW5074, reference compound] |  |  |  |  |  | 10400
